Source: US20230263822A1, “MODULATION OF FACTOR 11 EXPRESSION” (Ionis Pharmaceuticals, Inc., priority 2008, published 2023)

Key:
[1] = Hematology assays in cynomolgus monkeys (Example 46); type: in vivo
Method: Groups, each consisting of two male and two female monkeys, were injected subcutaneously with 25 mg/kg of ISIS 416850, ISIS 449709, ISIS 445522, ISIS 449710, ISIS 449707, ISIS 449711, ISIS 449708, 416858, and ISIS 445531. Antisense oligonucleotide was administered to the monkeys at 25 mg/kg three times per week for week 1 and 25 mg/kg twice per week for weeks 2 to 8. A control group, consisting of two male and two female monkeys was injected subcutaneously with PBS according to the same dosing regimen. Body weights were taken 14 days and 7 days before the start of treatment and were then measured weekly throughout the treatment period. Blood samples were collected 14 days and 5 days before the start of treatment and subsequently several times during the dosing regimen for PT and aPTT measurements, and measurement of various hematologic factors. On day 55, the monkeys were euthanized by exsanguination while under deep anesthesia, and organs harvested for further analysis.

[2] = Tolerability in CD1 mice: kidney function, BUN (Example 41); settings: 50 mg/kg s.c. twice per week for 6 weeks, plasma
[3] = Tolerability in CD1 mice: body weight and organ weights (Example 37); settings: 50 mg/kg s.c. twice per week for 6 weeks; for body weight: increase in grams over the PBS control weight taken before the start of treatment; for Kidney weight / Liver weight / Spleen weight: percentage of the body weight
Method: Body weight was measured at the onset of the study and subsequently twice per week. The body weights of the mice are presented in Table 80 and are expressed increase in grams over the PBS control weight taken before the start of treatment. Liver, spleen, and kidney weights were measured at the end of the study, and are also presented in Table 80 as percentage of the body weight.

ISIS 416850: MOE gapmer, nucleobases 1275 to 1318 of SEQ ID NO: 1 (Table 8) (antisense TGCACAGTTTCTGGCAGGCC; MOE gapmer, wing and gap sizes not given here)
HCT ([1]; Day 17): 42% | MCH ([1]; Day 17): 23.7 pg | MCHC ([1]; Day 17): 31.3 g/dL | MCV ([1]; Day 17): 76 fL | RBC count ([1]; Day 17): 5.6e+06 µL⁻¹ | WBC count ([1]; Day 17): 11000 µL⁻¹ | hemoglobin content ([1]; Day 17): 13.3 g/dL | monocytes ([1]; Day 17): 3.2% | neutrophils ([1]; Day 17): 95% | platelet count ([1]; Day 17): 467 ×100/μL | HCT ([1]; Day 31): 42% | MCH ([1]; Day 31): 23.3 pg | MCHC ([1]; Day 31): 31.0 g/dL | MCV ([1]; Day 31): 75 fL | RBC count ([1]; Day 31): 5.6e+06 µL⁻¹ | WBC count ([1]; Day 31): 12000 µL⁻¹ | hemoglobin content ([1]; Day 31): 13.1 g/dL | monocytes ([1]; Day 31): 3.7% | neutrophils ([1]; Day 31): 100% | platelet count ([1]; Day 31): 507 ×100/μL | HCT ([1]; Day 45): 42% | MCH ([1]; Day 45): 22.7 pg | MCHC ([1]; Day 45): 31.0 g/dL | MCV ([1]; Day 45): 75 fL | RBC count ([1]; Day 45): 5.7e+06 µL⁻¹ | WBC count ([1]; Day 45): 12000 µL⁻¹ | hemoglobin content ([1]; Day 45): 13.1 g/dL | monocytes ([1]; Day 45): 3.8% | neutrophils ([1]; Day 45): 85% | platelet count ([1]; Day 45): 453 ×100/μL | HCT ([1]; Day 55): 40% | MCH ([1]; Day 55): 22.9 pg | MCHC ([1]; Day 55): 30.9 g/dL | MCV ([1]; Day 55): 73 fL | RBC count ([1]; Day 55): 5.6e+06 µL⁻¹ | WBC count ([1]; Day 55): 10000 µL⁻¹ | hemoglobin content ([1]; Day 55): 12.7 g/dL | monocytes ([1]; Day 55): 3.4% | neutrophils ([1]; Day 55): 108% | platelet count ([1]; Day 55): 396 ×100/μL | HCT ([1]; Day-5): 44% | MCH ([1]; Day-5): 23.7 pg | MCHC ([1]; Day-5): 30.7 g/dL | MCV ([1]; Day-5): 77 fL | RBC count ([1]; Day-5): 5.7e+06 µL⁻¹ | WBC count ([1]; Day-5): 13000 µL⁻¹ | hemoglobin content ([1]; Day-5): 13.5 g/dL | monocytes ([1]; Day-5): 2.9% | neutrophils ([1]; Day-5): 109% | platelet count ([1]; Day-5): 517 ×100/μL | HCT ([1]; Day-14): 41% | MCH ([1]; Day-14): 23.7 pg | MCHC ([1]; Day-14): 32.0 g/dL | MCV ([1]; Day-14): 74 fL | RBC count ([1]; Day-14): 5.5e+06 µL⁻¹ | WBC count ([1]; Day-14): 12000 µL⁻¹ | hemoglobin content ([1]; Day-14): 13.0 g/dL | monocytes ([1]; Day-14): 1.9% | neutrophils ([1]; Day-14): 88% | platelet count ([1]; Day-14): 462 ×100/μL | BUN [2]: 28 mg/dL | body weight [3]: 12 g | Kidney weight [3]: 1.6% | Liver weight [3]: 6% | Spleen weight [3]: 0.4%

ISIS 416858: MOE gapmer, nucleobases 1275 to 1318 of SEQ ID NO: 1 (Table 8) (antisense ACGGCATTGGTGCACAGTTT; MOE gapmer, wing and gap sizes not given here)
HCT ([1]; Day 17): 43% | MCH ([1]; Day 17): 23.1 pg | MCHC ([1]; Day 17): 29.9 g/dL | MCV ([1]; Day 17): 78 fL | RBC count ([1]; Day 17): 5.6e+06 µL⁻¹ | WBC count ([1]; Day 17): 10000 µL⁻¹ | hemoglobin content ([1]; Day 17): 13.0 g/dL | monocytes ([1]; Day 17): 4.0% | neutrophils ([1]; Day 17): 54% | platelet count ([1]; Day 17): 358 ×100/μL | HCT ([1]; Day 31): 43% | MCH ([1]; Day 31): 23.0 pg | MCHC ([1]; Day 31): 31.0 g/dL | MCV ([1]; Day 31): 76 fL | RBC count ([1]; Day 31): 5.6e+06 µL⁻¹ | WBC count ([1]; Day 31): 9000 µL⁻¹ | hemoglobin content ([1]; Day 31): 12.8 g/dL | monocytes ([1]; Day 31): 4.7% | neutrophils ([1]; Day 31): 54% | platelet count ([1]; Day 31): 289 ×100/μL | HCT ([1]; Day 45): 41% | MCH ([1]; Day 45): 22.2 pg | MCHC ([1]; Day 45): 30.3 g/dL | MCV ([1]; Day 45): 75 fL | RBC count ([1]; Day 45): 5.5e+06 µL⁻¹ | WBC count ([1]; Day 45): 8000 µL⁻¹ | hemoglobin content ([1]; Day 45): 12.3 g/dL | monocytes ([1]; Day 45): 4.6% | neutrophils ([1]; Day 45): 61% | platelet count ([1]; Day 45): 287 ×100/μL | HCT ([1]; Day 55): 39% | MCH ([1]; Day 55): 22.8 pg | MCHC ([1]; Day 55): 30.4 g/dL | MCV ([1]; Day 55): 75 fL | RBC count ([1]; Day 55): 5.3e+06 µL⁻¹ | WBC count ([1]; Day 55): 9000 µL⁻¹ | hemoglobin content ([1]; Day 55): 12.0 g/dL | monocytes ([1]; Day 55): 4.6% | neutrophils ([1]; Day 55): 73% | platelet count ([1]; Day 55): 257 ×100/μL | HCT ([1]; Day-5): 44% | MCH ([1]; Day-5): 23.5 pg | MCHC ([1]; Day-5): 29.8 g/dL | MCV ([1]; Day-5): 79 fL | RBC count ([1]; Day-5): 5.5e+06 µL⁻¹ | WBC count ([1]; Day-5): 11000 µL⁻¹ | hemoglobin content ([1]; Day-5): 13.0 g/dL | monocytes ([1]; Day-5): 2.7% | neutrophils ([1]; Day-5): 84% | platelet count ([1]; Day-5): 433 ×100/μL | HCT ([1]; Day-14): 41% | MCH ([1]; Day-14): 23.2 pg | MCHC ([1]; Day-14): 31.1 g/dL | MCV ([1]; Day-14): 75 fL | RBC count ([1]; Day-14): 5.5e+06 µL⁻¹ | WBC count ([1]; Day-14): 10000 µL⁻¹ | hemoglobin content ([1]; Day-14): 12.8 g/dL | monocytes ([1]; Day-14): 2.0% | neutrophils ([1]; Day-14): 65% | platelet count ([1]; Day-14): 369 ×100/μL | body weight [3]: 12 g | Kidney weight [3]: 1.6% | Liver weight [3]: 7% | Spleen weight [3]: 0.6%
